Reference: patent US8946257B2, “N-containing heteroaryl derivatives as JAK3 kinase inhibitors” (Vectura Limited, priority 2009, dated 2015)

Legend:
[1] = biological target: T1, catalytic domain of human JAK2 (Homo sapiens, UniProt O60674); experiment: Inhibition of JAK2 activity (Z'-Lyte Kinase Assay kit-Tyr 6 Peptide); type: biochemical
T1 construct: the catalytic domain of human JAK2
Experimental: The inhibition of JAK2 kinase activity was determined in 384-well assay microplates using the Z′-Lyte® Kinase Assay kit-Tyr 6 Peptide kit, supplied by Invitrogen (Ref: PV4122), following the manufacturer's instructions.
(§1) In a final volume of 10 μL per well, 2.5 μL of the product to be tested dissolved in 4% DMSO (final concentration of the product to be tested, 0.1-10000 nM) was incubated with 0.5 μg/well of the catalytic domain of human JAK2, 2 μM of the substrate peptide Z′-Lyte® Tyr 6 and 16 μM of ATP; all components were dissolved in 50 mM pH 7.5 Hepes buffer, 10 mM Magnesium chloride (II), 1 mM EGTA and 0.01% Brij® 35. The reaction was started by the addition of said 16 μM ATP; after incubation for 1 hour at 25° C., 5 μL of A Z′-Lyte® Tyr 6 development reagent was added and the mixture was incubated for 1 hour at 25° C. Phosphorylation was then quantified in each well using a Safire2® fluorescence microplate reader from Tecan.

[2] = biological target: catalytic domain of human JAK3 (Homo sapiens, UniProt P52333); experiment: Inhibition of JAK3 activity (Z'-Lyte Kinase Assay kit-Tyr 6 Peptide); type: biochemical
Experimental: The inhibition of JAK3 kinase activity was determined in 384-well assay microplates using the Z′-Lyte® Kinase Assay kit-Tyr 6 Peptide kit, supplied by Invitrogan (Ref: PV4122), following the manufacturer's instructions.
as §1, with “0.3 μg/mL” for “0.5 μg/well”, “JAK3 (amino acid sequence […]),” for “JAK2,”, “4” for “16”

Sequence of catalytic domain of human JAK3 (P52333 781-1124 limits assumed): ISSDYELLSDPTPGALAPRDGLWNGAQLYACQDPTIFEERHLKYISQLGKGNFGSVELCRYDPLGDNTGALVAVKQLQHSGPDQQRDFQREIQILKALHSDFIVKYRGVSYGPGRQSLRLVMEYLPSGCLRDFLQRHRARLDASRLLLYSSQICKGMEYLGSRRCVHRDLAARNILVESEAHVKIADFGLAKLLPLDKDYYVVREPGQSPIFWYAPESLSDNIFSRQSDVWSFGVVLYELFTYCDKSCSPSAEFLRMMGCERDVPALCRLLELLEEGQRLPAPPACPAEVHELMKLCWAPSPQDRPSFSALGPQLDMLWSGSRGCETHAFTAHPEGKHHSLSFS
T1 sequence (O60674 849-1124 limits assumed): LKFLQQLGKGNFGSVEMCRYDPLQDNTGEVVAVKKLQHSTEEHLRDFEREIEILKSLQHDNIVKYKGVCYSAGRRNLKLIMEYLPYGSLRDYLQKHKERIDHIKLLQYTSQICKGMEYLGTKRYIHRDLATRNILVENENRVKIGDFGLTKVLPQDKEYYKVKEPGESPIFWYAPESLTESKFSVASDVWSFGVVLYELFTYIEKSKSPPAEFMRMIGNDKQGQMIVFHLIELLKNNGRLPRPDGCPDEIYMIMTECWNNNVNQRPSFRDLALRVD

| inhibition at 1 µM [1] [%] | inhibition at 1 µM [2] [%] | SMILES |
| --- | --- | --- |
| > 50 | > 50 | CC(=O)OCn1c(=O)n([C@H]2CCCN(C(=O)CC#N)C2)c2nc(-c3cnn4ccccc34)ncc21 [Example 31, (S)-(9-(1-(2-Cyanoacetyl)piperidin-3-yl)-8-oxo-2-(pyrazolo[1,5-a]pyridin-3-yl)-8,9-dihydro-7H-purin-7-yl)methyl acetate] |
| > 50 | > 50 | Nc1nc2cnc(-c3cnn4ccccc34)nc2n1C1CCOCC1 [Example 33, 2-(Pyrazolo[1,5-a]pyridin-3-yl)-9-(tetrahydro-2H-pyran-4-yl)-9H-purin-8-amine] |
| > 50 | > 50 | O=C1CCCN1c1nc2cnc(-c3cnn4ccccc34)nc2n1C1CCOCC1 [Example 34, 1-(2-(Pyrazolo[1,5-a]pyridin-3-yl)-9-(tetrahydro-2H-pyran-4-yl)-9H-purin-8-yl)pyrrolidin-2-one] |
